Assay results taken from patent US20240197651A1, “DEXMECAMYLAMINE AND USES THEREOF” (Atacama Therapeutics, Inc., priority 2021, published 2024).

Key:
Format in all cases: in vivo
[1] = system: patients with hidradenitis suppurativa; assay: Treatment of hidradenitis suppurativa
Protocol: The compound of the disclosure (e.g., dexmecamylamine substantially free of exo-R-mecamylamine) is administered to patients with hidradenitis suppurativa. […] In some embodiments, the subject produces sebum in an amount of 100 μg/cm^2 and above (e.g., 125, 135, 150, 175, 200 μg/cm^2 or higher). In particular, 4 mg of dexmecamylamine hydrochloride is administered orally twice a day to a subject with hidradenitis suppurativa. Efficacy is measured by a change in pain, as measured using a 10-point numerical rating scale, 1 through 10, with 10 being the worst, from baseline to week 12; a change in quality of life using Dermatology Life Quality Index (DLQI) from baseline to week 12; a change in clinical status using the Hurley Staging from baseline to week 12; a change in clinical status using the International Hidradenitis Suppurative Severity Score System (IHS4) from baseline to week 12; a change in clinical status using the Hidradenitis Suppurative Clinical Response (HiSCR) from baseline to week 12; a change in clinical status using the Hidradenitis Suppurative Physician Global Assessment (HS-PGA) from baseline to week 12; a change in clinical status using the Hidradenitis Suppurative Area and Severity Index-Revised (HASI-R) from baseline to week 12; and/or a change in the absolute number of abscesses and inflammatory nodules.

[2] = system: patients with sebaceous hyperplasia; assay: Treatment of sebaceous hyperplasia
Protocol: The compound of the disclosure (e.g., dexmecamylamine substantially free of exo-R-mecamylamine) is administered to patients with sebaceous hyperplasia. […] In some embodiments, the subject produces sebum in an amount of 100 μg/cm^2 and above (e.g., 125, 135, 150, 175, 200 μg/cm^2 or higher).

[3] = system: patients with sebaceous adenoma; assay: Treatment of sebaceous adenoma
Protocol: The compound of the disclosure (e.g., dexmecamylamine substantially free of exo-R-mecamylamine) is administered to patients with sebaceous adenoma. […] In some embodiments, the subject produces sebum in an amount of 100 μg/cm^2 and above (e.g., 125, 135, 150, 175, 200 μg/cm^2 or higher).

[4] = system: patients with oily skin; assay: Treatment of oily skin
Protocol: The compound of the disclosure (e.g., dexmecamylamine substantially free of exo-R-mecamylamine) is administered to patients with oily skin. […] In some embodiments, the subject produces sebum in an amount of 100 μg/cm^2 and above (e.g., 125, 135, 150, 175, 200 μg/cm^2 or higher).

[5] = system: patients with seborrhea; assay: Treatment of seborrhea
Protocol: The compound of the disclosure (e.g., dexmecamylamine substantially free of exo-R-mecamylamine) is administered to patients with seborrhea. […] In some embodiments, the subject produces sebum in an amount of 100 μg/cm^2 and above (e.g., 125, 135, 150, 175, 200 μg/cm^2 or higher).

[6] = system: patients with sebaceous carcinoma; assay: Treatment of sebaceous carcinoma
Protocol: The compound of the disclosure (e.g., dexmecamylamine substantially free of exo-R-mecamylamine) is administered to patients with sebaceous carcinoma. […] In some embodiments, the subject produces sebum in an amount of 100 μg/cm^2 and above (e.g., 125, 135, 150, 175, 200 μg/cm^2 or higher).

[7] = system: patients with sebaceous cyst; assay: Treatment of sebaceous cyst
Protocol: The compound of the disclosure (e.g., dexmecamylamine substantially free of exo-R-mecamylamine) is administered to patients with sebaceous cyst. […] In some embodiments, the subject produces sebum in an amount of 100 μg/cm^2 and above (e.g., 125, 135, 150, 175, 200 μg/cm^2 or higher).

[8] = system: patients with wrinkles; assay: Treatment of wrinkles
Protocol: The compound of the disclosure (e.g., dexmecamylamine substantially free of exo-R-mecamylamine) is administered to patients with wrinkles. […] In some embodiments, the subject produces sebum in an amount of 100 μg/cm^2 and above (e.g., 125, 135, 150, 175, 200 μg/cm^2 or higher).

[9] = system: human subjects with hyperhidrosis and oily skin; assay: Phase II clinical study, facial sebum production; conditions: for Average response category at 2 weeks: change in percent of average facial sebum quantity at end of 2-week treatment vs baseline; for Average response category at 4 weeks: change in percent of average facial sebum quantity at end of 4-week treatment vs baseline; for Responders (%): subjects with 20% or greater reduction in sebum quantity following treatment
Excerpt: Acne vulgaris is a dermatological condition characterized by increased sebum production, which is driven, in part, by cholinergic signaling within the sympathetic nervous system. Activation of nicotinic receptors on human sebaceous glands is known to increase sebum production and secretion. Dexmecamylamine acts on nicotinic acetylcholine receptors to reduce sympathetic tone through the selective inhibition of presynaptic nicotinic receptors in the sympathetic ganglia. In order to determine the therapeutic efficacy of dexmecamylamine in the treatment of acne and related conditions, the inventors leveraged a Phase II clinical study in 15 human subjects with hyperhidrosis and oily skin (i.e., sebum production of 100 μg/cm^2 or greater (e.g., 125, 135, 150, 175, 200 μg/cm^2 or higher)) that were treated with dexmecamylamine hydrochloride. […] [table]

[10] = system: patients with enlarged pores; assay: Treatment of enlarged pores
Protocol: The compound of the disclosure (e.g., dexmecamylamine substantially free of exo-R-mecamylamine) is administered to patients with enlarged pores. […] In some embodiments, the compound is dexmecamylamine substantially free of exo-R-mecamylamine, or a pharmaceutically acceptable salt thereof. In some embodiments, the subject produces sebum in an amount of 100 μg/cm^2 and above (e.g., 125, 135, 150, 175, 200 μg/cm^2 or higher).

[11] = system: patients with acne; assay: Treatment of acne
Protocol: The compound of the disclosure (e.g., dexmecamylamine substantially free of exo-R-mecamylamine or pharmaceutically acceptable salt thereof) is administered to patients with acne. […] In some embodiments, the compound is dexmecamylamine substantially free of exo-R-mecamylamine, or a pharmaceutically acceptable salt thereof. In some embodiments, the subject produces sebum in an amount of 100 μg/cm^2 and above (e.g., 125, 135, 150, 175, 200 μg/cm^2 or higher). In particular, 4 mg of dexmecamylamine hydrochloride is administered orally twice a day to a subject. Subjects have oily skin (>100 μg/cm^2) as measured on three locations of the face by a Sebumeter® grease spot photometry device and has facial acne vulgaris (including the nose). Efficacy is determined by a comparison of sebum as an absolute change from baseline at 12 weeks. Other measures of efficacy include the absolute change from baseline in inflammatory and non-inflammatory lesion counts at 8 weeks and the percent change from baseline in lesion counts (inflammatory and noninflammatory) at weeks 8 and 12. […] The assessment may include the quantity of lesions, size of lesions, intensity of inflammation, and location of lesions to consider the quality and quantity of lesions.

[12] = system: patients with seborrheic dermatitis; assay: Treatment of seborrheic dermatitis
Protocol: The compound of the disclosure (e.g., dexmecamylamine substantially free of exo-R-mecamylamine) is administered to patients with seborrheic dermatitis. […] In some embodiments, the subject produces sebum in an amount of 100 μg/cm^2 and above (e.g., 125, 135, 150, 175, 200 μg/cm^2 or higher).

CN[C@@]1(C)[C@@H]2CC[C@@H](C2)C1(C)C [dexmecamylamine]
symptoms, hidradenitis suppurativa [1]: improved symptoms
symptoms, sebaceous hyperplasia [2]: improved symptoms
symptoms, sebaceous adenoma [3]: improved symptoms
symptoms, oil production by the skin [4]: improved symptoms
symptoms, seborrhea [5]: improved symptoms
symptoms, sebaceous carcinoma [6]: improved symptoms
symptoms, sebaceous cyst [7]: improved symptoms
symptoms, wrinkles [8]: improved symptoms
Average response category at 2 weeks ([9]; 2 mg BID): Low (Reduction in sebum production of less than 20%.)
Average response category at 4 weeks ([9]; 2 mg BID): Medium^†† (Reduction in sebum production between 20% and 35%.)
Responders (%) ([9]; 2 mg BID): 80%
facial sebum production ([9]; 2 mg or 4 mg BID, four weeks of treatment): reduction in facial sebum production
Average response category at 2 weeks ([9]; 4 mg BID): Low (Reduction in sebum production of less than 20%.)
Average response category at 4 weeks ([9]; 4 mg BID): High^††† (Reduction in sebum production of greater than 35%.)
Responders (%) ([9]; 4 mg BID): 100%
symptoms, enlarged pores [10]: improved symptoms
symptoms of acne (whiteheads, blackheads, papules, pimples, nodules, cysts) [11]: improved symptoms
symptoms, seborrheic dermatitis [12]: improved symptoms
